# Target: T1, human mGlu 5a receptor (Homo sapiens, UniProt P41594)
# T1 construct: expressed in transfected cells; host or cells: EBNA cells (transient transfection); cell membrane homogenates
# Experiment: [3H]MPEP competition binding on membranes of EBNA cells transiently transfected with human mGlu 5a receptor
# Details: displacement of [3H]MPEP (2 nM), 1 h at 4° C., Ki=IC50/[1+L/Kd]
# Procedure: The pharmacological activity of the compounds was tested using the following method: For binding experiments, cDNA encoding human mGlu 5a receptor was transiently transfected into EBNA cells using a procedure described by Schlaeger and Christensen [Cytotechnology 15:1-13 (1998)]. Cell membrane homogenates were stored at −80° C. until the day of assay where upon they were thawed and resuspended and polytronised in 15 mM Tris-HCl, 120 mM NaCl, 100 mM KCl, 25 mM CaCl2, 25 mM MgCl2 binding buffer at pH 7.4 to a final assay concentration of 20 μg protein/well.
# Saturation isotherms were determined by addition of twelve [^3H]MPEP concentrations (0.04-100 nM) to these membranes (in a total volume of 200 μL) for 1 h at 4° C. Competition experiments were performed with a fixed concentration of [^3H]MPEP (2 nM) and IC50 values of test compounds evaluated using 11 concentrations (0.3-10,000 nM). Incubations were performed for 1 h at 4° C.
# At the end of the incubation, membranes were filtered onto unifilter (96-well white microplate with bonded GF/C filter preincubated 1 h in 0.1% PEI in wash buffer, Packard Bio-Science, Meriden, Conn.) with a Filtermate 96 harvester (Packard BioScience) and washed 3 times with cold 50 mM Tris-HCl, pH 7.4 buffer. Nonspecific binding was measured in the presence of 10 μM MPEP. The radioactivity on the filter was counted (3 min) on a Packard Top-count microplate scintillation counter with quenching correction after addition of 45 μl of microscint 40 (Canberra Packard S.A., Zürich, Switzerland) and shaking for 20 min.
# For binding experiments the Ki values of the compounds tested are given. The Ki value is defined by the following formula: Ki=IC50/[1+L/Kd] in which the IC50 values are those concentrations of the compounds tested which cause 50% inhibition of the competing radioligand ([^3H]MPEP). L is the concentration of radioligand used in the binding experiment and the Kd value of the radioligand is empirically determined for each batch of membranes prepared.
# T1 sequence (P41594 21-1180 isoform P41594-2 limits assumed): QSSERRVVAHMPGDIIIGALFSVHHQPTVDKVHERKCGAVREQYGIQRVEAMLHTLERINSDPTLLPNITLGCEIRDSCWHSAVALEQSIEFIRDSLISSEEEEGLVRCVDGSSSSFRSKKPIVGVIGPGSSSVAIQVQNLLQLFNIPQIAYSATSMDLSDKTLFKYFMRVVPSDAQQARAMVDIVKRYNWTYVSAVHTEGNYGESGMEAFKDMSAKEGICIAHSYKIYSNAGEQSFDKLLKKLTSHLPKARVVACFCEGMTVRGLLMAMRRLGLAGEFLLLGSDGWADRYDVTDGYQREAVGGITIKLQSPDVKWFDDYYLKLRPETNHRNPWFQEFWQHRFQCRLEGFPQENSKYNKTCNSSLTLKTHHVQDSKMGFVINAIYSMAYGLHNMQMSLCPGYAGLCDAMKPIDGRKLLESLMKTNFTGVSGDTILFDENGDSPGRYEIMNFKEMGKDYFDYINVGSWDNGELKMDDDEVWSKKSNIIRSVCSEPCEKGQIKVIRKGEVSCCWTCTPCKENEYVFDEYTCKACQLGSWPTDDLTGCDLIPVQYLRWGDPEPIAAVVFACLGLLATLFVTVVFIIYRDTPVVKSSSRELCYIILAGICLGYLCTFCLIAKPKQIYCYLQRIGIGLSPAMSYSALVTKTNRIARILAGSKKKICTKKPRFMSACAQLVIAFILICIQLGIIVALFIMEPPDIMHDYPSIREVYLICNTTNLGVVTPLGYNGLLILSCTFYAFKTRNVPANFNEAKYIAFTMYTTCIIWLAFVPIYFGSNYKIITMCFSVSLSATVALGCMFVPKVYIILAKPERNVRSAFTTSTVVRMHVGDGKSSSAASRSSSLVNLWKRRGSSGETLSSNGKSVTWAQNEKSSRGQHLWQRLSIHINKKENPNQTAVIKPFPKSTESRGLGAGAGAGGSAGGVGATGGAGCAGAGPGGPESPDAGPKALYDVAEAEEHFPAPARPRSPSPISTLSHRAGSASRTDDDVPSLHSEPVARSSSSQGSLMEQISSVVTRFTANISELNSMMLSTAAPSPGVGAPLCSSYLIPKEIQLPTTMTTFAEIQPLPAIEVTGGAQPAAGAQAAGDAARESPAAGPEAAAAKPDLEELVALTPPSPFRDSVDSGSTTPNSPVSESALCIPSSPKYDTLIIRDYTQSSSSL
row,Ki,Structure (SMILES)
1,0.026 µM,Cc1nc2c(Nc3cccc(Cl)c3)nccc2s1 [Example 1]
2,0.037 µM,"Cc1nc(Nc2ncc(-c3cccnc3)c3sc(C)nc23)cs1 [Example 2, (2-Methyl-7-pyridin-3-yl-thiazolo[4,5-c]pyridin-4-yl)-(2-methyl-thiazol-4-yl)-amine]"
3,0.042 µM,"Cc1csc(Nc2ncc(-c3cccnc3)c3sc(C)nc23)n1 [Example 3, (2-Methyl-7-pyridin-3-yl-thiazolo[4,5-c]pyridin-4-yl)-(4-methyl-thiazol-2-yl)-amine]"
4,0.04 µM,Cc1nc2c(Nc3ccc(F)cn3)ncc(-c3cccnc3)c2s1 [Example 4]
5,0.167 µM,Cc1nc2c(Nc3ccn(C)n3)ncc(-c3cccnc3)c2s1 [Example 5]
6,0.061 µM,Cc1csc(Nc2ncc(-c3cncnc3)c3sc(C)nc23)n1 [Example 9]
7,0.045 µM,"Cc1nc(Nc2ncc(-c3ccnc(Cl)c3)c3sc(C)nc23)cs1 [Example 14, [7-(2-Chloro-pyridin-4-yl)-2-methyl-thiazolo[4,5-c]pyridin-4-yl]-(2-methyl-thiazol-4-yl)-amine]"
8,0.128 µM,"Cc1nccc(Nc2ncc(-c3cccc(S(C)(=O)=O)c3)c3sc(C)nc23)n1 [Example 17, [7-(3-Methanesulfonyl-phenyl)-2-methyl-thiazolo[4,5-c]pyridin-4-yl]-(2-methyl-pyrimidin-4-yl)-amine]"
9,0.029 µM,"Cc1csc(Nc2ncc(-c3cc(F)cc(F)c3)c3sc(C)nc23)n1 [Example 19, [7-(3,5-Difluoro-phenyl)-2-methyl-thiazolo[4,5-c]pyridin-4-yl]-(4-methyl-thiazol-2-yl)-amine]"
10,0.087 µM,"Cc1ccc(Nc2ncc(-c3cncc(F)c3)c3sc(C)nc23)nc1 [Example 20, [7-(5-Fluoro-pyridin-3-yl)-2-methyl-thiazolo[4,5-c]pyridin-4-yl]-(5-methyl-pyridin-2-yl)-amine]"

# Source: patent US7659401B2, “Thiazolo[4,5-C]pyridine derivatives” (Hoffmann-La Roche Inc., priority 2005, dated 2010)
